Test results from publication PMC10315065 (Journal of Innate Immunity, 2023).
Starred links: 1 amine or outer side, 2 acyl side, 3 side chain; linkers in the order of their positions; H or OH if unused. Positions of bridges follow the written chain, without caps; N, C: chain ends. Non-standard residues stand in square brackets, D forms with d. Residues, ends and D or L forms follow the SMILES beside them. Chains are numbered I, II in the order given. Actinocin(9to1) = Cc1c2oc3c(C)ccc(C(=O)[*:1])c3nc-2c(C(=O)[*:2])c(N)c1=O; NMeV = CN[C@H](C(=O)O)C(C)C; Sar = CNCC(=O)O

Columns and labels:
[1] = tested on: intracellular Mycobacterium tuberculosis in macrophages; conditions: cited from earlier work; for autophagy activation and M.tb elimination: via induction of cathelicidin LL-37
[2] = Downstream effects of scrambled peptide; conditions: statement on negative control peptide
[3] = tested on: THP-1 cells; assay: Endocytosis of BSA-FITC; format: cell-based; conditions: BSA-FITC 10 μg, 37°C, 30 min; PMA-activated THP-1
[4] = tested on: peritoneal macrophages; assay: Flow cytometry binding/uptake of LL-37-FAM, peritoneal macrophages; format: cell-based, C57BL/6 mice
[5] = tested on: J774 macrophages; assay: Flow cytometry binding/internalization of labelled peptide, J774; format: cell-based, mouse; conditions: n = 3
[6] = tested on: TLR-4, THP-1 cells; assay: TLR-4 membrane expression on LPS treatment; format: cell-based; conditions: LPS 1 ug, 24 h; PMA-activated THP-1
[7] = tested on: cell surface GAPDH, J774; format: cell-based, mouse; conditions: KN-62 100 nM, 4 h; J774 wild-type; n = 3
[8] = tested on: GAPDH KD and wild-type cells; conditions: induced with actinomycin D; cited from earlier work

## O=C(O)CCCc1ccccc1 [phenylbutyrate]
[1]
  autophagy activation and M.tb elimination: activate the antibacterial autophagy mechanism

## GLKLRFEFSKIKGEFLKTPEVRFRDIKLKDNRISVQR [scrambled peptide]
[2]
  downstream effects of scrambled peptide: does not show downstream effects like the LL-37 peptide

## C=C1/C(=C\C=C2/CCC[C@]3(C)[C@@H]([C@H](C)CCCC(C)(C)O)CC[C@@H]23)C[C@@H](O)C[C@@H]1O [vitamin 1,25-D3]
[1]
  autophagy activation and M.tb elimination: activate the antibacterial autophagy mechanism

## BSA: BSA-FITC, endocytosis control
[3]
  endocytosis of BSA, empty vector vs GAPDH KD: could equally well carry out endocytosis of BSA

## 5-FAM-LC-LLGDFFRKSKEKIGKEFKRIVQRIKDFLRNLVPRTES [LL-37-FAM]
[4]
  cell surface LL-37 binding and uptake, M.tb infected: significantly enhanced
[5]; IFNγ-treated subsets vs control cells
  LL-37 membrane accumulation and uptake, IFNγ-treated: initial higher accumulation of FAM-LL-37 at their membrane, followed by increase in LL-37 uptake into the cytoplasm

## lipopolysaccharide
[6]
  TLR-4 membrane expression, empty vector and GAPDH KD: upregulation of TLR-4 membrane expression levels

## CN([C@@H](Cc1ccc(OS(=O)(=O)c2cccc3cnccc23)cc1)C(=O)N1CCN(c2ccccc2)CC1)S(=O)(=O)c1cccc2cnccc12 [KN-62, 1-(N,O-bis(5-Isoquinolinesulfonyl)-N-methyl-L-tyrosyl)-4-phenylpiperazine]
[7]
  cell surface GAPDH expression with KN-62: decrease in cell surface GAPDH expression
[5]; KN-62 100 nM, 4 h, J774 wild-type
  LL-37 uptake with KN-62: inhibition of LL-37 uptake into cells
[1]; KN-62
  effect on LL-37-induced anti-mycobacterial effects: does not inhibit LL-37-induced anti-mycobacterial effects

## Cc1c2oc3c(C)ccc(C(=O)N[C@@H]4C(=O)N[C@H](C(C)C)C(=O)N5CCC[C@H]5C(=O)N(C)CC(=O)N(C)[C@@H](C(C)C)C(=O)O[C@@H]4C)c3nc-2c(C(=O)N[C@@H]2C(=O)N[C@H](C(C)C)C(=O)N3CCC[C@H]3C(=O)N(C)CC(=O)N(C)[C@@H](C(C)C)C(=O)O[C@@H]2C)c(N)c1=O [actinomycin D] (I: T[dV]P[Sar][NMeV] / II: T[dV]P[Sar][NMeV]; ester I:1-I:C, II:1-II:C; linker I:N-II:N via Actinocin(9to1))
[8]
  induction of apoptosis, GAPDH KD vs wild-type: comparable
